Reference: ChEMBL document CHEMBL1201862, “PubChem BioAssay data set” (2004)
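48-hour exposure; five concentrations; linearly interpolated endpoints. The concentration for 50% growth inhibition is given as GI50.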 Active and inactive are the calls of the source. Rule as the data show it: active = GI50 up to about 1.1 µM and inactive = higher.

What was measured:
Assay in all cases: NCI anticancer screen, dose series, 48 h
[1] = test system: A498
[2] = test system: CCRF-CEM
[3] = test system: HCT-116
[4] = test system: HOP-62
[5] = test system: K562
[6] = test system: KM12
[7] = test system: M19-MEL
[8] = test system: MOLT-4
[9] = test system: NCI-H460
[10] = test system: OVCAR-8
[11] = test system: RPMI-8226
[12] = test system: SF-268
[13] = test system: SK-MEL-5
[14] = test system: SNB-19
[15] = test system: SR
[16] = test system: SW-620
[17] = test system: U-251
[18] = test system: LOX IMVI

In the case of CCOC(=O)C(=O)Nc1nc2c(s1)C(=O)c1ccccc1C2=O, the GI50 [1] is reported as 16.1 µM (inactive), the GI50 [2] is reported as 5.05 µM (inactive) and the GI50 [3] is reported as 13.3 µM (inactive). The GI50 [4] was 18.9 µM (inactive), the GI50 [5] was 6.03 µM (inactive) and the GI50 [6] was 16 µM (inactive). The GI50 [7] was 2.49 µM (inactive), the GI50 [8] was 2.32 µM (inactive) and the GI50 [9] was 19.2 µM (inactive). For the same molecule, the GI50 [10] was 10.6 µM (inactive), the GI50 [11] was 4.74 µM (inactive) and the GI50 [12] was 14.1 µM (inactive). For the same molecule, the GI50 [13] was 14.3 µM (inactive), the GI50 [14] was 17.9 µM (inactive) and the GI50 [15] was 3.43 µM (inactive). The GI50 [16] was 13.4 µM (inactive) and the GI50 [17] was 16.6 µM (inactive).

For Cc1ccc(/N=C/c2ccc3c(c2)OCO3)cc1C, the GI50 [1] was > 100 µM (inactive), the GI50 [2] was > 100 µM (inactive) and the GI50 [3] was > 100 µM (inactive). For the same molecule, the GI50 [5] was > 10 µM (inactive), the GI50 [6] was > 100 µM (inactive) and the GI50 [18] was > 100 µM (inactive). For the same molecule, the GI50 [7] was > 100 µM (inactive), the GI50 [8] was > 100 µM (inactive) and the GI50 [9] was > 100 µM (inactive). For the same molecule, the GI50 [10] was > 100 µM (inactive), the GI50 [11] was > 100 µM (inactive) and the GI50 [12] was > 100 µM (inactive). For the same molecule, the GI50 [13] was > 100 µM (inactive), the GI50 [14] was > 100 µM (inactive) and the GI50 [15] was > 100 µM (inactive). The GI50 [16] was > 100 µM (inactive) and the GI50 [17] was 8.13 µM (inactive).

In the case of COC(=O)C1=C(C)C(=O)C2(CCCCCC2C(=O)OC)C1 (stereo not drawn), the GI50 [1] is reported as > 100 µM (inactive), the GI50 [2] is reported as > 100 µM (inactive) and the GI50 [3] is reported as > 100 µM (inactive). For the same molecule, the GI50 [4] was 68.7 µM (inactive), the GI50 [5] was > 100 µM (inactive) and the GI50 [6] was > 100 µM (inactive). For the same molecule, the GI50 [7] was > 100 µM (inactive), the GI50 [8] was > 100 µM (inactive) and the GI50 [9] was > 100 µM (inactive). For the same molecule, the GI50 [10] was > 100 µM (inactive), the GI50 [11] was > 100 µM (inactive) and the GI50 [12] was > 100 µM (inactive). The GI50 [13] was > 100 µM (inactive), the GI50 [14] was > 100 µM (inactive) and the GI50 [15] was > 100 µM (inactive). The GI50 [16] was > 100 µM (inactive) and the GI50 [17] was > 100 µM (inactive).

With O=C1CCC2CCOc3ccc(O)c1c32 (stereo not drawn) the GI50 [1] was > 100 µM (inactive), the GI50 [2] was > 100 µM (inactive) and the GI50 [3] was > 100 µM (inactive). For the same molecule, the GI50 [4] was > 100 µM (inactive), the GI50 [5] was > 100 µM (inactive) and the GI50 [6] was > 100 µM (inactive). The GI50 [7] was > 100 µM (inactive), the GI50 [8] was > 100 µM (inactive) and the GI50 [9] was > 100 µM (inactive). The GI50 [10] was > 100 µM (inactive), the GI50 [11] was > 100 µM (inactive) and the GI50 [12] was > 100 µM (inactive). For the same molecule, the GI50 [13] was > 100 µM (inactive), the GI50 [14] was > 100 µM (inactive) and the GI50 [15] was > 100 µM (inactive). The GI50 [17] was > 100 µM (inactive).

In the case of O/N=C/c1ccc(O)c(O)c1, the GI50 [1] is reported as > 100 µM (inactive), the GI50 [2] is reported as 7.38 µM (inactive) and the GI50 [3] is reported as > 100 µM (inactive). The GI50 [4] was > 100 µM (inactive), the GI50 [5] was 55.8 µM (inactive) and the GI50 [6] was > 100 µM (inactive). For the same molecule, the GI50 [18] was 67.8 µM (inactive), the GI50 [7] was > 100 µM (inactive) and the GI50 [8] was 20.5 µM (inactive). The GI50 [9] was 77.4 µM (inactive), the GI50 [10] was > 100 µM (inactive) and the GI50 [12] was > 100 µM (inactive). For the same molecule, the GI50 [13] was 62.8 µM (inactive), the GI50 [14] was > 100 µM (inactive) and the GI50 [15] was 37.2 µM (inactive). For the same molecule, the GI50 [16] was 15.4 µM (inactive) and the GI50 [17] was 61.7 µM (inactive).

For CN(C)CC/C(=N\Nc1c(Cl)cccc1Cl)c1ccccc1, the GI50 [1] was 16.6 µM (inactive), the GI50 [2] was 28.2 µM (inactive) and the GI50 [3] was 15.3 µM (inactive). The GI50 [4] was 29.4 µM (inactive), the GI50 [5] was 20.6 µM (inactive) and the GI50 [6] was 17 µM (inactive). For the same molecule, the GI50 [18] was 17.3 µM (inactive), the GI50 [7] was 18.3 µM (inactive) and the GI50 [8] was 23.4 µM (inactive). The GI50 [9] was 16.3 µM (inactive), the GI50 [10] was 16.9 µM (inactive) and the GI50 [11] was 17.2 µM (inactive). For the same molecule, the GI50 [13] was 15.1 µM (inactive), the GI50 [14] was 35.1 µM (inactive) and the GI50 [15] was 21.5 µM (inactive). For the same molecule, the GI50 [16] was 17.6 µM (inactive) and the GI50 [17] was 16.8 µM (inactive).

For O=c1oc2c3ccc4ccccc4c3n(Cc3nc4ccccc4[nH]3)c2c2ccccc12, the GI50 [1] was 24.4 µM (inactive), the GI50 [2] was 1.07 µM (active) and the GI50 [3] was 4.72 µM (inactive). The GI50 [4] was 4.16 µM (inactive), the GI50 [5] was 2.47 µM (inactive) and the GI50 [6] was > 64.4 µM (inactive). The GI50 [18] was 2.26 µM (inactive), the GI50 [7] was 5.46 µM (inactive) and the GI50 [8] was 1.11 µM (active). For the same molecule, the GI50 [9] was 0.518 µM (active), the GI50 [10] was 13.7 µM (inactive) and the GI50 [11] was 3.48 µM (inactive). For the same molecule, the GI50 [12] was 15.6 µM (inactive), the GI50 [14] was 4.5 µM (inactive) and the GI50 [15] was 0.791 µM (active). The GI50 [16] was 2.2 µM (inactive) and the GI50 [17] was 4.25 µM (inactive).
